Assay results reported in ChEMBL document CHEMBL1145871, “Design and pharmacology of peptoids and peptide-peptoid hybrids based on the melanocortin agonists core tetrapeptide sequence” (Bioorg Med Chem Lett, 2003).
Active and inactive are the calls of the source. No cut-off for these calls is given here. Where a SMILES comes first, the peptide text is derived from it. [ ]: non-standard residue; d: D form. Gly(N(CH2)2(3-indolyl)) = O=C(O)CNCCc1c[nH]c2ccccc12; Gly(N-CH2CH2-imidazol-4-yl) = O=C(O)CNCCc1c[nH]cn1; N(1-naphthylmethyl)Gly = O=C(O)CNCc1cccc2ccccc12; Gly(N-(CH2)3-guanidino) = N=C(N)NCCCNCC(=O)O; NhArg = N=C(N)NCCCCNCC(=O)O; Nphe = O=C(O)CNCc1ccccc1; Nlys = NCCCCNCC(=O)O

Columns and labels:
[1] = biological target: Melanocyte-stimulating hormone receptor (Mus musculus, UniProt Q01727); assay: Agonistic activity evaluated at melanocortin 1 receptor (MC1R) of mouse HEK293 cells; format: functional, cell-based
Melanocyte-stimulating hormone receptor, sequence (Q01727 whole entry): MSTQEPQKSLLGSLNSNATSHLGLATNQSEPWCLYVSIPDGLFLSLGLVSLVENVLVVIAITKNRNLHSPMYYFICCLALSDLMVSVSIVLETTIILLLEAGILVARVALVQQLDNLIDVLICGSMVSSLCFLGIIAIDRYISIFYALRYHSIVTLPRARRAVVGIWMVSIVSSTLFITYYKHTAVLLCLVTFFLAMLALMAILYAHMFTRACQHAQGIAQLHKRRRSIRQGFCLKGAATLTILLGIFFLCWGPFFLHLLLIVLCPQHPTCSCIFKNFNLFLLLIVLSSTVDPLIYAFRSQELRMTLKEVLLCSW

[2] = biological target: Melanocortin receptor 5 (Mus musculus) (UniProt P41149); assay: Percent stimulation at melanocortin 5 receptor (MC5R) of mouse HEK293 cells at a concentration of 100 uM; format: cell-based
Melanocortin receptor 5 (Mus musculus), sequence (P41149 whole entry): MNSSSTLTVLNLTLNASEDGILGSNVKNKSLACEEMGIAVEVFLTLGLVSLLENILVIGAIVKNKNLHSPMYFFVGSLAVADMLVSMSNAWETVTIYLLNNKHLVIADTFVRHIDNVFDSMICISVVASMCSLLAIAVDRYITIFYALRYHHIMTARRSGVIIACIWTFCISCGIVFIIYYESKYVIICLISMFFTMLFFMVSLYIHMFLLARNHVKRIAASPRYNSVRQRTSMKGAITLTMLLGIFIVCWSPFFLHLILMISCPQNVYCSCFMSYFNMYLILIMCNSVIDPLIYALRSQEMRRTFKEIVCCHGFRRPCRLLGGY

[3] = biological target: Melanocortin receptor 3 (Mus musculus) (UniProt P33033); assay: Agonistic activity at melanocortin 3 receptor (MC3R) of mouse HEK293 cells at a concentration of 100 uM; NA=No activity; format: functional, cell-based
Melanocortin receptor 3 (Mus musculus), sequence (P33033 whole entry): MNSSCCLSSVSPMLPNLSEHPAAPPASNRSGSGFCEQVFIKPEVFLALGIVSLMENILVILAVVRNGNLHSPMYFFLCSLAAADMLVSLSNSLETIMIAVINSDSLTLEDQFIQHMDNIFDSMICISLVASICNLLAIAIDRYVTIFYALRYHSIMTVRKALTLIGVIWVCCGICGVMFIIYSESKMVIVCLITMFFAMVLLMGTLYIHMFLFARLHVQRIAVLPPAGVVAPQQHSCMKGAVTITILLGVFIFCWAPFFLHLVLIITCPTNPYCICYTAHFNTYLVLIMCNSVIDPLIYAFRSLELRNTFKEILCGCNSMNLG

[4] = biological target: Melanocortin receptor 4 (Mus musculus) (UniProt P56450); assay: Percent stimulation at melanocortin 4 receptor (MC4R) of mouse HEK293 cells at a concentration of 100 uM; format: cell-based
Melanocortin receptor 4 (Mus musculus), sequence (P56450 whole entry): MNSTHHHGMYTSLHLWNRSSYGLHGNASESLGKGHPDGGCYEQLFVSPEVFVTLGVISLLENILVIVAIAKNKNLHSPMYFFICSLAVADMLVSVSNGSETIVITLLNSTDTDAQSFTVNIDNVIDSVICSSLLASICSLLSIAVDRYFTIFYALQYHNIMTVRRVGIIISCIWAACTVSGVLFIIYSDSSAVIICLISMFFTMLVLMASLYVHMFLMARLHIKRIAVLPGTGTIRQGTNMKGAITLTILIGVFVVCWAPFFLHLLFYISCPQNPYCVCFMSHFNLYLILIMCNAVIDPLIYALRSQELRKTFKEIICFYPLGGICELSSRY

Melanocortin receptor 5 = Melanocortin receptor 5 (Mus musculus, UniProt P41149); assay: Agonistic activity evaluated at melanocortin 5 receptor (MC5R) of mouse HEK293 cells; format: functional, cell-based
Melanocortin receptor 5, sequence (P41149 whole entry): as the sequence (P41149 whole entry) above

Melanocortin receptor 4 = Melanocortin receptor 4 (Mus musculus, UniProt P56450); assay: Agonistic activity evaluated at melanocortin 4 receptor (MC4R) of mouse HEK293 cells; format: functional, cell-based
Melanocortin receptor 4, sequence (P56450 whole entry): as the sequence (P56450 whole entry) above

[5] = biological target: Melanocortin receptor 3 (Mus musculus) (UniProt P33033); assay: Percent stimulation at melanocortin 3 receptor (MC3R) of mouse HEK293 cells at a concentration of 100 uM; format: cell-based
Melanocortin receptor 3 = Melanocortin receptor 3 (Mus musculus, UniProt P33033); assay: Agonistic activity evaluated at melanocortin 3 receptor (MC3R) of mouse HEK293 cells; format: functional, cell-based
Melanocortin receptor 3, sequence (P33033 whole entry): as the sequence (P33033 whole entry) above

[6] = biological target: Melanocortin receptor 4 (Mus musculus) (UniProt P56450); assay: Agonistic activity at melanocortin 4 receptor (MC4R) of mouse HEK293 cells at a concentration of 100 uM; NA=No activity; format: functional, cell-based

SMILES | EC50 [1] [nM] | Stimulation [2] [%] | Stimulation [3] | Stimulation [4] [%] | EC50 (Melanocortin receptor 5) [nM] | EC50 (Melanocortin receptor 4) [nM] | Stimulation [5] [%] | EC50 (Melanocortin receptor 3) [nM] | Stimulation [6]
CC(=O)N[C@@H](Cc1cnc[nH]1)C(=O)N(CC(=O)N[C@@H](CCCNC(=N)N)C(=O)N[C@@H](Cc1c[nH]c2ccccc12)C(N)=O)Cc1ccccc1 | 48000 | – | – | – | – | – | – | – | –
CC(=O)N[C@@H](Cc1c[nH]cn1)C(=O)N(CC(=O)N[C@@H](CCCN=C(N)N)C(=O)N[C@@H](Cc1c[nH]c2ccccc12)C(N)=O)Cc1ccccc1 | – | 40 | inactive | 20 | – | – | – | – | –
CC(=O)N(CCc1c[nH]cn1)CC(=O)N[C@@H](Cc1ccccc1)C(=O)N[C@@H](CCCN=C(N)N)C(=O)N[C@@H](Cc1c[nH]c2ccccc12)C(N)=O (Ac-[Gly(N-CH2CH2-imidazol-4-yl)]FRW-NH2) | – | – | – | – | – | – | 60 | – | –
CC(=O)N(CCc1c[nH]cn1)CC(=O)N(CC(=O)N(CCCCN)CC(=O)N(CCc1c[nH]c2ccccc12)CC(N)=O)Cc1ccccc1 (Ac-[Gly(N-CH2CH2-imidazol-4-yl)][Nphe][Nlys][Gly(N(CH2)2(3-indolyl))]-NH2) | 27000 | – | – | – | 7380 | 27200 | 75 | – | –
CC(=O)N(CC(=O)N(CC(=O)N(CCCCN=C(N)N)CC(=O)N(CC(N)=O)Cc1cccc2ccccc12)Cc1ccccc1)Cc1ccccc1 (Ac-[Nphe][Nphe][NhArg][N(1-naphthylmethyl)Gly]-NH2) | 7600 | – | – | – | 20000 | – | 55 | – | inactive

The next lines start with the values.

EC50 [1] [nM] | Stimulation [2] [%] | Stimulation [3] | Stimulation [4] [%] | EC50 (Melanocortin receptor 5) [nM] | EC50 (Melanocortin receptor 4) [nM] | Stimulation [5] [%] | EC50 (Melanocortin receptor 3) [nM] | Stimulation [6] | SMILES
500 | – | – | – | 56 | 640 | 70 | – | – | CC(=O)N[C@@H](Cc1c[nH]cn1)C(=O)N[C@@H](Cc1ccccc1)C(=O)N[C@@H](CCCN=C(N)N)C(=O)N(CCc1c[nH]c2ccccc12)CC(N)=O (Ac-HFR[Gly(N(CH2)2(3-indolyl))]-NH2)
170 | – | – | – | 160 | 1100 | – | 9200 | – | CC(=O)N[C@@H](Cc1cnc[nH]1)C(=O)N[C@@H](Cc1ccccc1)C(=O)N(CCCNC(=N)N)CC(=O)N[C@@H](Cc1c[nH]c2ccccc12)C(N)=O (Ac-HF[Gly(N-(CH2)3-guanidino)]W-NH2)
1700 | – | – | – | 530 | 880 | – | – | – | CC(=O)N(CCc1cnc[nH]1)CC(=O)N[C@@H](Cc1ccccc1)C(=O)N[C@@H](CCCNC(=N)N)C(=O)N[C@@H](Cc1c[nH]c2ccccc12)C(N)=O (Ac-[Gly(N-CH2CH2-imidazol-4-yl)]FRW-NH2)
6600 | – | – | 65 | 5300 | – | 55 | – | – | CC(=O)N(CCc1c[nH]cn1)CC(=O)N(CC(=O)N(CCCN=C(N)N)CC(=O)N(CCc1c[nH]c2ccccc12)CC(N)=O)Cc1ccccc1 (Ac-[Gly(N-CH2CH2-imidazol-4-yl)][Nphe][Gly(N-(CH2)3-guanidino)][Gly(N(CH2)2(3-indolyl))]-NH2)
780 | – | – | – | 360 | 260 | 25 | – | – | CC(=O)N(CC(=O)N[C@@H](Cc1ccccc1)C(=O)N[C@@H](CCCN=C(N)N)C(=O)N[C@@H](Cc1c[nH]c2ccccc12)C(N)=O)Cc1ccccc1 (Ac-[Nphe]FRW-NH2)
